Test results taken from ChEMBL document CHEMBL1201862, “PubChem BioAssay data set” (2004).
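Following 48 hours of exposure in 96-well plates, responses at five concentrations were used to interpolate endpoints linearly. GI50: concentration for 50% inhibition of growth.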 Activity calls are given as the source filed them. Cut-off read from the data, not from the text of the source: active = GI50 up to about 1.1 µM and inactive = higher.

Experiments:
Experiment in all cases: growth of human tumour cells (NCI), 48 h
[1] = test system: NCI-H23
[2] = test system: HCT-116
[3] = test system: A549
[4] = test system: NCI-H226
[5] = test system: HL-60
[6] = test system: SF-539
[7] = test system: SF-268
[8] = test system: T47D
[9] = test system: UACC-257
[10] = test system: SN12C
[11] = test system: A498
[12] = test system: SF-295
[13] = test system: HT-29
[14] = test system: MDA-MB-435
[15] = test system: SK-MEL-28
[16] = test system: HOP-92
[17] = test system: UO-31
[18] = test system: OVCAR-4
[19] = test system: 786-0
[20] = test system: KM12
[21] = test system: COLO 205
[22] = test system: MDA-MB-231
[23] = test system: HCT-15
[24] = test system: ACHN
[25] = test system: OVCAR-5
[26] = test system: SK-MEL-2
[27] = test system: TK-10
[28] = test system: UACC-62
[29] = test system: M14
[30] = test system: OVCAR-8
[31] = test system: NCI-H460
[32] = test system: SR
[33] = test system: CCRF-CEM
[34] = test system: BT-549
[35] = test system: MOLT-4
[36] = test system: PC-3
[37] = test system: RXF 393
[38] = test system: SNB-75
[39] = test system: RPMI-8226
[40] = test system: LOX IMVI
[41] = test system: HOP-62
[42] = test system: NCI-H522
[43] = test system: Hs-578T
[44] = test system: K562
[45] = test system: MCF7
[46] = test system: U-251
[47] = test system: SK-MEL-5
[48] = test system: OVCAR-3
[49] = test system: Malme-3M
[50] = test system: NCI/ADR-RES
[51] = test system: CAKI-1
[52] = test system: SK-OV-3
[53] = test system: SW-620
[54] = test system: SNB-19
[55] = test system: IGROV-1
[56] = test system: DU-145
[57] = test system: HCC 2998
[58] = test system: EKVX

For CCCc1cn2c(/C=N/NC(=N)N)c(-c3cccc([N+](=O)[O-])c3)nc2s1, the GI50 [1] was 1.78 µM (inactive), the GI50 [2] was 2.27 µM (inactive) and the GI50 [3] was 1.73 µM (inactive). For the same molecule, the GI50 [4] was 1.66 µM (inactive), the GI50 [5] was 2.09 µM (inactive) and the GI50 [6] was 1.69 µM (inactive). For the same molecule, the GI50 [7] was 2.25 µM (inactive), the GI50 [8] was 1.94 µM (inactive) and the GI50 [9] was 1.71 µM (inactive). The GI50 [10] was 1.21 µM (inactive), the GI50 [11] was 17.3 µM (inactive) and the GI50 [12] was 1.84 µM (inactive). For the same molecule, the GI50 [13] was 2.06 µM (inactive), the GI50 [14] was 1.76 µM (inactive) and the GI50 [15] was 1.43 µM (inactive). For the same molecule, the GI50 [16] was 11.1 µM (inactive), the GI50 [17] was 1.9 µM (inactive) and the GI50 [18] was 1.47 µM (inactive). For the same molecule, the GI50 [19] was 1.95 µM (inactive), the GI50 [20] was 1.76 µM (inactive) and the GI50 [21] was 1.88 µM (inactive). The GI50 [22] was 1.47 µM (inactive), the GI50 [23] was 1.84 µM and the GI50 [24] was 1.79 µM (inactive). The GI50 [25] was 1.81 µM (inactive), the GI50 [26] was 2.1 µM (inactive) and the GI50 [27] was 0.0405 µM (active). For the same molecule, the GI50 [28] was 1.61 µM (inactive), the GI50 [29] was 2.02 µM (inactive) and the GI50 [30] was 1.88 µM (inactive). For the same molecule, the GI50 [31] was 2.22 µM (inactive), the GI50 [32] was 2.09 µM (inactive) and the GI50 [33] was 0.746 µM (active). For the same molecule, the GI50 [34] was 1.57 µM (inactive), the GI50 [35] was 1.23 µM (inactive) and the GI50 [36] was 2.59 µM (inactive). The GI50 [37] was 1.89 µM (inactive), the GI50 [38] was 1.56 µM (inactive) and the GI50 [39] was 1.8 µM (inactive). For the same molecule, the GI50 [40] was 2.07 µM (inactive), the GI50 [41] was 1.78 µM (inactive) and the GI50 [42] was 1.98 µM (inactive). The GI50 [43] was 2.68 µM (inactive), the GI50 [44] was 1.58 µM (inactive) and the GI50 [45] was 2.48 µM (inactive). The GI50 [46] was 1.86 µM (inactive), the GI50 [47] was 1.98 µM (inactive) and the GI50 [48] was 1.8 µM (inactive). The GI50 [49] was 1.3 µM (inactive), the GI50 [50] was 2.92 µM (inactive) and the GI50 [51] was 2.01 µM (inactive). For the same molecule, the GI50 [52] was 2.22 µM (inactive), the GI50 [53] was 3.08 µM (inactive) and the GI50 [54] was 2.07 µM (inactive). The GI50 [55] was 1.92 µM (inactive) and the GI50 [56] was 1.74 µM (inactive).
O=C1C(NCCF)=C(Cl)C(=O)c2ncccc21 was tested, and the GI50 [1] was 0.653 µM (active), the GI50 [57] was 1.21 µM (inactive) and the GI50 [2] was 1.18 µM (inactive). The GI50 [3] was 1.73 µM (inactive), the GI50 [4] was 1.71 µM (inactive) and the GI50 [5] was 0.413 µM (active). For the same molecule, the GI50 [6] was 1 µM (active), the GI50 [7] was 1.5 µM (inactive) and the GI50 [8] was 2.05 µM (inactive). The GI50 [9] was 1.4 µM (inactive), the GI50 [10] was 1.02 µM (active) and the GI50 [11] was 1.63 µM (inactive). The GI50 [12] was 1.49 µM (inactive), the GI50 [13] was 2.47 µM (inactive) and the GI50 [14] was 0.188 µM (active). The GI50 [15] was 0.701 µM (active), the GI50 [16] was 2.08 µM (inactive) and the GI50 [19] was 1.19 µM (inactive). For the same molecule, the GI50 [20] was 1.54 µM (inactive), the GI50 [22] was 2.19 µM (inactive) and the GI50 [23] was 0.461 µM. The GI50 [24] was 1.53 µM (inactive), the GI50 [25] was 2.04 µM (inactive) and the GI50 [26] was 0.179 µM (active). For the same molecule, the GI50 [27] was 1.81 µM (inactive), the GI50 [28] was 0.247 µM (active) and the GI50 [29] was 0.869 µM (active). For the same molecule, the GI50 [30] was 0.8 µM (active), the GI50 [31] was 0.429 µM (active) and the GI50 [32] was 2.36 µM (inactive). For the same molecule, the GI50 [33] was 0.204 µM (active), the GI50 [34] was 1.49 µM (inactive) and the GI50 [35] was 1.22 µM (inactive). The GI50 [36] was 1.29 µM (inactive), the GI50 [37] was 0.736 µM (active) and the GI50 [38] was 0.617 µM (active). For the same molecule, the GI50 [39] was 0.49 µM (active), the GI50 [40] was 0.284 µM (active) and the GI50 [41] was 1.47 µM (inactive). The GI50 [43] was 1.77 µM (inactive), the GI50 [44] was 0.206 µM (active) and the GI50 [45] was 0.716 µM (active). For the same molecule, the GI50 [46] was 0.689 µM (active), the GI50 [58] was 1.71 µM (inactive) and the GI50 [47] was 0.145 µM (active). The GI50 [48] was 2.48 µM (inactive), the GI50 [49] was 0.402 µM (active) and the GI50 [52] was 1.77 µM (inactive). For the same molecule, the GI50 [53] was 0.378 µM (active), the GI50 [54] was 1.39 µM (inactive) and the GI50 [55] was 1.39 µM (inactive). For the same molecule, the GI50 [56] was 1.11 µM (active).
